Measurements reported in patent publication US10954269B2, “Anti-inflammatory tripeptides” (Dr. August Wolff Gmbh & Co. KG Arzneimittel, priority 2013, dated 2021).

Assays:
primary murine T-cells = experiment: Cytokine secretion on protein level in activated primary murine T-cells (13-plex FACS / Luminex, supernatant); format: cell-based, C57BL/6 mice; details: for IL-1 cytokine concentration / IL-2 cytokine concentration / IL-4 cytokine concentration / IL-5 cytokine concentration / IL-6 cytokine concentration / IL-10 cytokine concentration / IL-13 cytokine concentration / IL-17 cytokine concentration / IL-21 cytokine concentration / IL-22 cytokine concentration / IL-27 cytokine concentration / TNF-α cytokine concentration / IFN-γ cytokine concentration: substance 10^−9M
In short: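 T-cells from secondary lymphatic organs of naïve C57BL/6 mice, stimulated with PMA/Ionomycin or IFN-γ; supernatant cytokines measured by 13-plex FACS 48 h and 72 h after stimulation. In another run, PMA/Ionomycin-stimulated cells received compounds at 10^−7, 10^−9 and 10^−11 M, with IFN-γ, IL-17 and IL-10 measured by Luminex.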

[1] = system: human keratinocyte cell line (HaCaT); experiment: Cytokine secretion on protein level in activated human keratinocyte cell line HaCaT (13-plex FACS / Luminex, supernatant); format: cell-based; details: substance 10^−9M
In short: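 First, T-cells are isolated from healthy donors' blood. Next, they and HaCaT keratinocytes are activated for 48 h with PMA/Ionomycin or IFN-γ in the presence of tripeptides. Finally, secreted cytokines are quantified in supernatants by 13-plex FACS at 48 and 72 h.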

primary human T-cells = experiment: Cytokine secretion on protein level in activated primary human T-cells (13-plex FACS / Luminex, supernatant); format: cell-based; details: for IL-1 cytokine concentration / IL-2 cytokine concentration / IL-4 cytokine concentration / IL-5 cytokine concentration / IL-6 cytokine concentration / IL-9 cytokine concentration / IL-10 cytokine concentration / IL-12p70 cytokine concentration / IL-13 cytokine concentration / IL-17 cytokine concentration / IL-22 cytokine concentration / TNF-α cytokine concentration / INF-α cytokine concentration: substance 10^−9M
In short: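 Primary T-cells from peripheral blood of healthy volunteers, or HaCaT cells, were activated with PMA/Ionomycin or IFN-γ for 48 h and treated with tripeptides. Supernatants were collected 48 h and 72 h after stimulation and cytokines (IL-1, IL-2, IL-6, IL-12p70, IL-17, IFN-γ, TNF-α) were measured by 13-plex FACS.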

[2] = primary murine T-cells stimulated with IFN-γ
[3] = primary murine T-cells stimulated with PBS
[4] = primary murine T-cells stimulated with PMA/Ionomycin
[5] = HaCaT stimulated with PMA/Ionomycin
[6] = primary human T-cells stimulated with IFN-γ
[7] = primary human T-cells stimulated with PBS
[8] = primary human T-cells stimulated with PMA/Ionomycin

With “N^α,N^α-dimethyl-(L)-Phe-(D)-Pro-N^α-methyl-(L)-Thr-OH [Example 7]” the “secretion / expression of pro-inflammatory cytokines (supernatant)” value (primary murine T-cells; activated primary murine T-cells) was “immunomodulatory effects were seen”, the IL-1 cytokine concentration (primary murine T-cells; [2]) was 88.23 pg/mL and the IL-2 cytokine concentration (primary murine T-cells; [2]) was 98.22 pg/mL. For the same substance, the IL-4 cytokine concentration (primary murine T-cells; [2]) was 40.87 pg/mL, the IL-5 cytokine concentration (primary murine T-cells; [2]) was 265.4 pg/mL and the IL-6 cytokine concentration (primary murine T-cells; [2]) was 123.98 pg/mL. The IL-10 cytokine concentration (primary murine T-cells; [2]) was 1199.53 pg/mL, the IL-13 cytokine concentration (primary murine T-cells; [2]) was 0 pg/mL and the IL-17 cytokine concentration (primary murine T-cells; [2]) was 84.26 pg/mL. It also gave an IL-21 cytokine concentration (primary murine T-cells; [2]) of 0 pg/mL, an IL-22 cytokine concentration (primary murine T-cells; [2]) of 50.37 pg/mL and an IL-27 cytokine concentration (primary murine T-cells; [2]) of 0 pg/mL. For the same substance, the TNF-α cytokine concentration (primary murine T-cells; [2]) was 25.58 pg/mL, the IFN-γ cytokine concentration (primary murine T-cells; [3]) was 0 pg/mL and the IL-1 cytokine concentration (primary murine T-cells; [3]) was 62.38 pg/mL. The IL-2 cytokine concentration (primary murine T-cells; [3]) was 137.05 pg/mL, the IL-4 cytokine concentration (primary murine T-cells; [3]) was 60.56 pg/mL and the IL-5 cytokine concentration (primary murine T-cells; [3]) was 317.47 pg/mL. The IL-6 cytokine concentration (primary murine T-cells; [3]) was 129.26 pg/mL, the IL-10 cytokine concentration (primary murine T-cells; [3]) was 1283.71 pg/mL and the IL-13 cytokine concentration (primary murine T-cells; [3]) was 0 pg/mL. The IL-17 cytokine concentration (primary murine T-cells; [3]) was 0 pg/mL, the IL-21 cytokine concentration (primary murine T-cells; [3]) was 0 pg/mL and the IL-22 cytokine concentration (primary murine T-cells; [3]) was 15.86 pg/mL. For the same substance, the IL-27 cytokine concentration (primary murine T-cells; [3]) was 61.43 pg/mL, the TNF-α cytokine concentration (primary murine T-cells; [3]) was 53.67 pg/mL and the IFN-γ cytokine concentration (primary murine T-cells; [4]) was 1916.21 pg/mL. It also gave an IL-1 cytokine concentration (primary murine T-cells; [4]) of 154.26 pg/mL, an IL-2 cytokine concentration (primary murine T-cells; [4]) of 99.71 pg/mL and an IL-4 cytokine concentration (primary murine T-cells; [4]) of 99.12 pg/mL. The IL-5 cytokine concentration (primary murine T-cells; [4]) was 246.42 pg/mL, the IL-6 cytokine concentration (primary murine T-cells; [4]) was 184.98 pg/mL and the IL-10 cytokine concentration (primary murine T-cells; [4]) was 1233.22 pg/mL. The IL-13 cytokine concentration (primary murine T-cells; [4]) was 0 pg/mL, the IL-17 cytokine concentration (primary murine T-cells; [4]) was 67.92 pg/mL and the IL-21 cytokine concentration (primary murine T-cells; [4]) was 0 pg/mL. For the same substance, the IL-22 cytokine concentration (primary murine T-cells; [4]) was 71.09 pg/mL, the IL-27 cytokine concentration (primary murine T-cells; [4]) was 90.15 pg/mL and the TNF-α cytokine concentration (primary murine T-cells; [4]) was 40.87 pg/mL. For the same substance, the IL-1 cytokine concentration ([1]; HaCaT stimulated with IFN-γ) was 109.65 pg/mL, the IL-2 cytokine concentration ([1]; HaCaT stimulated with IFN-γ) was 267.78 pg/mL and the IL-4 cytokine concentration ([1]; HaCaT stimulated with IFN-γ) was 0 pg/mL. For the same substance, the IL-5 cytokine concentration ([1]; HaCaT stimulated with IFN-γ) was 0 pg/mL, the IL-6 cytokine concentration ([1]; HaCaT stimulated with IFN-γ) was 470.44 pg/mL and the IL-9 cytokine concentration ([1]; HaCaT stimulated with IFN-γ) was 14.88 pg/mL. The IL-10 cytokine concentration ([1]; HaCaT stimulated with IFN-γ) was 0 pg/mL, the IL-12p70 cytokine concentration ([1]; HaCaT stimulated with IFN-γ) was 0 pg/mL and the IL-13 cytokine concentration ([1]; HaCaT stimulated with IFN-γ) was 1843.69 pg/mL. The IL-17 cytokine concentration ([1]; HaCaT stimulated with IFN-γ) was 202.45 pg/mL, the IL-22 cytokine concentration ([1]; HaCaT stimulated with IFN-γ) was 0 pg/mL and the TNF-α cytokine concentration ([1]; HaCaT stimulated with IFN-γ) was 0 pg/mL. The IFN-γ cytokine concentration ([1]; HaCaT stimulated with PBS) was 0 pg/mL, the IL-1 cytokine concentration ([1]; HaCaT stimulated with PBS) was 181.03 pg/mL and the IL-2 cytokine concentration ([1]; HaCaT stimulated with PBS) was 180.91 pg/mL. For the same substance, the IL-4 cytokine concentration ([1]; HaCaT stimulated with PBS) was 0 pg/mL, the IL-5 cytokine concentration ([1]; HaCaT stimulated with PBS) was 113.28 pg/mL and the IL-6 cytokine concentration ([1]; HaCaT stimulated with PBS) was 119.59 pg/mL. It also gave an IL-9 cytokine concentration ([1]; HaCaT stimulated with PBS) of 0 pg/mL, an IL-10 cytokine concentration ([1]; HaCaT stimulated with PBS) of 0 pg/mL and an IL-12p70 cytokine concentration ([1]; HaCaT stimulated with PBS) of 0 pg/mL. For the same substance, the IL-13 cytokine concentration ([1]; HaCaT stimulated with PBS) was 1910.22 pg/mL, the IL-17 cytokine concentration ([1]; HaCaT stimulated with PBS) was 0 pg/mL and the IL-22 cytokine concentration ([1]; HaCaT stimulated with PBS) was 0 pg/mL. The TNF-α cytokine concentration ([1]; HaCaT stimulated with PBS) was 21.66 pg/mL, the IFN-γ cytokine concentration [1, 5] was 450.42 pg/mL and the IL-1 cytokine concentration [1, 5] was 0 pg/mL. The IL-2 cytokine concentration [1, 5] was 218.82 pg/mL, the IL-4 cytokine concentration [1, 5] was 112.94 pg/mL and the IL-5 cytokine concentration [1, 5] was 88.67 pg/mL. The IL-6 cytokine concentration [1, 5] was 359.17 pg/mL, the IL-9 cytokine concentration [1, 5] was 14.57 pg/mL and the IL-10 cytokine concentration [1, 5] was 64.01 pg/mL. The IL-12p70 cytokine concentration [1, 5] was 0 pg/mL, the IL-13 cytokine concentration [1, 5] was 1877.03 pg/mL and the IL-17 cytokine concentration [1, 5] was 209.12 pg/mL. The IL-22 cytokine concentration [1, 5] was 0 pg/mL, the TNF-α cytokine concentration [1, 5] was 0 pg/mL and the “secretion / expression of pro-inflammatory cytokines (supernatant)” value (primary human T-cells; activated primary human T-cells) was “immunomodulatory effects were seen”. For the same substance, the IL-1 cytokine concentration (primary human T-cells; [6]) was 0 pg/mL, the IL-2 cytokine concentration (primary human T-cells; [6]) was 0 pg/mL and the IL-4 cytokine concentration (primary human T-cells; [6]) was 83.34 pg/mL. It also gave an IL-5 cytokine concentration (primary human T-cells; [6]) of 0 pg/mL, an IL-6 cytokine concentration (primary human T-cells; [6]) of 56.38 pg/mL and an IL-9 cytokine concentration (primary human T-cells; [6]) of 0 pg/mL. It also gave an IL-10 cytokine concentration (primary human T-cells; [6]) of 69.21 pg/mL, an IL-12p70 cytokine concentration (primary human T-cells; [6]) of 0 pg/mL and an IL-13 cytokine concentration (primary human T-cells; [6]) of 59.7 pg/mL. It also gave an IL-17 cytokine concentration (primary human T-cells; [6]) of 0 pg/mL, an IL-22 cytokine concentration (primary human T-cells; [6]) of 0 pg/mL and a TNF-α cytokine concentration (primary human T-cells; [6]) of 0 pg/mL. For the same substance, the IL-1 cytokine concentration (primary human T-cells; [7]) was 154.31 pg/mL, the IL-2 cytokine concentration (primary human T-cells; [7]) was 126.59 pg/mL and the IL-4 cytokine concentration (primary human T-cells; [7]) was 0 pg/mL. The IL-5 cytokine concentration (primary human T-cells; [7]) was 8.58 pg/mL, the IL-6 cytokine concentration (primary human T-cells; [7]) was 122.64 pg/mL and the IL-9 cytokine concentration (primary human T-cells; [7]) was 13.42 pg/mL. It also gave an IL-10 cytokine concentration (primary human T-cells; [7]) of 121.25 pg/mL, an IL-12p70 cytokine concentration (primary human T-cells; [7]) of 0 pg/mL and an IL-13 cytokine concentration (primary human T-cells; [7]) of 0 pg/mL. It also gave an IL-17 cytokine concentration (primary human T-cells; [7]) of 95.69 pg/mL, an IL-22 cytokine concentration (primary human T-cells; [7]) of 0 pg/mL and an INF-α cytokine concentration (primary human T-cells; [7]) of 69.17 pg/mL. It also gave a TNF-α cytokine concentration (primary human T-cells; [7]) of 51.46 pg/mL, an IL-1 cytokine concentration (primary human T-cells; [8]) of 508.96 pg/mL and an IL-2 cytokine concentration (primary human T-cells; [8]) of 1650.58 pg/mL. The IL-4 cytokine concentration (primary human T-cells; [8]) was 72.07 pg/mL, the IL-5 cytokine concentration (primary human T-cells; [8]) was 357.88 pg/mL and the IL-6 cytokine concentration (primary human T-cells; [8]) was 1100.07 pg/mL. The IL-9 cytokine concentration (primary human T-cells; [8]) was 263.36 pg/mL, the IL-10 cytokine concentration (primary human T-cells; [8]) was 842.93 pg/mL and the IL-12p70 cytokine concentration (primary human T-cells; [8]) was 0 pg/mL. For the same substance, the IL-13 cytokine concentration (primary human T-cells; [8]) was 991.61 pg/mL, the IL-17 cytokine concentration (primary human T-cells; [8]) was 2611.96 pg/mL and the IL-22 cytokine concentration (primary human T-cells; [8]) was 0 pg/mL. For the same substance, the INF-α cytokine concentration (primary human T-cells; [8]) was 6989.26 pg/mL and the TNF-α cytokine concentration (primary human T-cells; [8]) was 2062.57 pg/mL.
